Assay results as given in ChEMBL document CHEMBL1152207, “Leucettamol A: a new inhibitor of Ubc13-Uev1A interaction isolated from a marine sponge, Leucetta aff. microrhaphis” (Bioorg Med Chem Lett, 2008).
Active and inactive are the calls of the source. No cut-off for these calls is given here.

Key:
[1] = target: Ubiquitin-conjugating enzyme E2 N/Ubiquitin-conjugating enzyme E2 variant 1 (Homo sapiens, UniProt P61088+Q13404); assay: (§1) Inhibition of human Ubc13-Uev1A interaction expressed in Escherichia BL21 after 15 mins by ELISA
[2] = target: Ubiquitin-conjugating enzyme E2 N/Ubiquitin-conjugating enzyme E2 variant 1 (Homo sapiens) (UniProt Q13404+P61088); assay: as §1
[3] = target: T1, Ubiquitin-conjugating enzyme E2 N (Homo sapiens) (UniProt P61088); assay: Inhibition of Ubc13-[…] interaction by ELISA
T1 sequence (whole entry): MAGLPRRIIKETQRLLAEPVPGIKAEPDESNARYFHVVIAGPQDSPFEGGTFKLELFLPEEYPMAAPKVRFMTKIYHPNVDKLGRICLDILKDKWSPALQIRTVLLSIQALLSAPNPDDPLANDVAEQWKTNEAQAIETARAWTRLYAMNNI

Compound | IC50 [1] [µM] | Activity [2] | Activity [3]
C[C@@H](N)[C@@H](O)CCCCCCCCCCCCCCCCCCCCCCCC[C@H](O)[C@@H](C)N | 8.25 | – | –
CC(=O)N[C@H](C)[C@H](C/C=C\C/C=C\C/C=C\C/C=C\C/C=C\C/C=C\CCCCCC[C@H](OC(C)=O)[C@@H](C)NC(C)=O)OC(C)=O | – | inactive | –
C[C@@H](N)[C@@H](O)C/C=C\C/C=C\C/C=C\C/C=C\C/C=C\C/C=C\CCCCCC[C@H](O)[C@@H](C)N [LEUCETTAMOL A] | 106 | – | inactive
